# Assay results published in ChEMBL document CHEMBL1201861, “Genomics of Drug Sensitity in Cancer screening data, Wellcome Trust Sanger Institute”.
# Assays:
# Experiment in all cases: cells
# [1] = system: Capan-2; assay type: functional, cell-based, Homo sapiens; conditions: Homo sapiens, Capan-2;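 note: Capan-2 cell growth inhibition, read out with a viability assay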
# Description: SANGER: Inhibition of human Capan-2 cell growth in a cell viability assay.
# [2] = system: ES5; assay type: functional, cell-based, Homo sapiens; conditions: Homo sapiens, ES5;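 note: growth inhibition of human ES5 cells, read out by a cell viability assay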
# Description: SANGER: Inhibition of human ES5 cell growth in a cell viability assay.
# [3] = system: ES7; assay type: functional, cell-based, Homo sapiens; conditions: Homo sapiens, ES7;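 note: growth inhibition of cultured human ES7 cells, read out as cell viability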
# Description: SANGER: Inhibition of human ES7 cell growth in a cell viability assay.
# [4] = system: FTC-133; assay type: functional, cell-based, Homo sapiens; conditions: Homo sapiens, FTC-133
# [5] = system: GB-1; assay type: functional, cell-based, Homo sapiens; conditions: Homo sapiens, GB-1;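 note: growth of GB-1 cells judged by a viability assay, IC50 marks the concentration inhibiting growth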
# Description: SANGER: Inhibition of human GB-1 cell growth in a cell viability assay.
# [6] = system: HCC1954; assay type: functional, cell-based, Homo sapiens; conditions: Homo sapiens, HCC1954;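 note: growth inhibition of human HCC1954 cells, read out with a cell viability assay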
# Description: SANGER: Inhibition of human HCC1954 cell growth in a cell viability assay.
# [7] = system: HCE-T; assay type: functional, cell-based, Homo sapiens; conditions: Homo sapiens, HCE-T;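 note: cell viability assay read-out, reporting inhibition of HCE-T cell growth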
# Description: SANGER: Inhibition of human HCE-T cell growth in a cell viability assay.
# [8] = system: HMV-2 cell line; assay type: functional, cell-based, Homo sapiens; conditions: Homo sapiens, HMV-2;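 note: growth inhibition of HMV-II cells, read out with a cell viability assay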
# Description: SANGER: Inhibition of human HMV-II cell growth in a cell viability assay.
# [9] = system: HuTu80; assay type: functional, cell-based, Homo sapiens, HUTU-80; conditions: Homo sapiens, HuTu80;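 note: growth inhibition of HuTu80 human cells, determined with a cell viability readout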
# Description: SANGER: Inhibition of human HUTU-80 cell growth in a cell viability assay.
# [10] = system: HuP-T4; assay type: functional, cell-based, Homo sapiens; conditions: Homo sapiens, HuP-T4;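 note: cell viability assay measuring how much HuP-T4 cell growth is inhibited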
# Description: SANGER: Inhibition of human HuP-T4 cell growth in a cell viability assay.
# [11] = system: JVM-3; assay type: functional, cell-based; conditions: Homo sapiens;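 note: growth inhibition of human JVM-3 cells, read out with a cell viability assay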
# Description: SANGER: Inhibition of human JVM-3 cell growth in a cell viability assay.
# [12] = system: KNS-81-FD; assay type: functional, cell-based, Homo sapiens; conditions: Homo sapiens, KNS-81-FD;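 note: growth inhibition of KNS-81-FD cells, read out with a cell viability assay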
# Description: SANGER: Inhibition of human KNS-81-FD cell growth in a cell viability assay.
# [13] = system: KP-N-YN; assay type: functional, cell-based; conditions: Homo sapiens;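 note: growth inhibition of KP-N-YN cells, read out with a cell viability assay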
# Description: SANGER: Inhibition of human KP-N-YN cell growth in a cell viability assay.
# [14] = system: KYSE-510; assay type: functional, cell-based, Homo sapiens; conditions: Homo sapiens, KYSE-510;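 note: cell viability readout used to measure how strongly growth of the cell line is suppressed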
# Description: SANGER: Inhibition of human KYSE-510 cell growth in a cell viability assay.
# [15] = system: KYSE-520 cell line; assay type: functional, cell-based, Homo sapiens; conditions: Homo sapiens, KYSE-520;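 note: growth inhibition of human KYSE-520 cells, read out with a viability assay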
# Description: SANGER: Inhibition of human KYSE-520 cell growth in a cell viability assay.
# [16] = system: KYSE-70 cell line; assay type: functional, cell-based, Homo sapiens; conditions: Homo sapiens, KYSE-70;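 note: cell viability assay read-out, with IC50 expressing suppression of KYSE-70 cell growth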
# Description: SANGER: Inhibition of human KYSE-70 cell growth in a cell viability assay.
# [17] = system: L-363; assay type: functional, cell-based; conditions: Homo sapiens
# Description: SANGER: Inhibition of human L-363 cell growth in a cell viability assay.
# [18] = system: LC-2-ad; assay type: functional, cell-based, Homo sapiens; conditions: Homo sapiens, LC-2-ad;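 note: growth inhibition of human LC-2-ad cells, read out with a cell viability assay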
# Description: SANGER: Inhibition of human LC-2-ad cell growth in a cell viability assay.
# [19] = system: LOX IMVI; assay type: functional, cell-based; conditions: Homo sapiens
# Description: SANGER: Inhibition of human LOXIMVI cell growth in a cell viability assay.
# [20] = system: LoVo; assay type: functional, cell-based; conditions: Homo sapiens;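 note: growth inhibition of human LoVo cells, read out with a cell viability assay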
# Description: SANGER: Inhibition of human LoVo cell growth in a cell viability assay.
# [21] = system: MEG-01; assay type: functional, cell-based; conditions: Homo sapiens;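 note: growth inhibition of MEG-01 cells, read out by a cell viability assay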
# Description: SANGER: Inhibition of human MEG-01 cell growth in a cell viability assay.
# [22] = system: MN-60; assay type: functional, cell-based; conditions: Homo sapiens;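 note: growth inhibition of the MN-60 cell line, determined with a cell viability assay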
# Description: SANGER: Inhibition of human MN-60 cell growth in a cell viability assay.
# [23] = system: MS-1; assay type: functional, cell-based; conditions: Homo sapiens;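 note: growth inhibition of MS-1 cells, read out by cell viability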
# Description: SANGER: Inhibition of human MS-1 cell growth in a cell viability assay.
# [24] = system: NB10; assay type: functional, cell-based, Homo sapiens; conditions: Homo sapiens, NB10;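 note: growth inhibition of NB10 cells, read out by a cell viability assay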
# Description: SANGER: Inhibition of human NB10 cell growth in a cell viability assay.
# [25] = system: NB7; assay type: functional, cell-based; conditions: Homo sapiens;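 note: growth inhibition of NB7 cells, read out with a cell viability assay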
# Description: SANGER: Inhibition of human NB7 cell growth in a cell viability assay.
# [26] = system: NCI-H1355; assay type: functional, cell-based, Homo sapiens; conditions: Homo sapiens, NCI-H1355;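 note: growth inhibition of human NCI-H1355 cells, read out by a cell viability assay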
# Description: SANGER: Inhibition of human NCI-H1355 cell growth in a cell viability assay.
# [27] = system: NCI-H1650; assay type: functional, cell-based, Homo sapiens; conditions: Homo sapiens, NCI-H1650;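 note: growth inhibition of human NCI-H1650 cells measured by a cell viability assay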
# Description: SANGER: Inhibition of human NCI-H1650 cell growth in a cell viability assay.
# [28] = system: NCI-H520; assay type: functional, cell-based, Homo sapiens; conditions: Homo sapiens, NCI-H520;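 note: growth inhibition of NCI-H520 cells, measured by a cell viability assay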
# Description: SANGER: Inhibition of human NCI-H520 cell growth in a cell viability assay.
# [29] = system: NCI-H810; assay type: functional, cell-based, Homo sapiens; conditions: Homo sapiens, NCI-H810;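 note: IC50 reflects inhibition of cancer cell line growth, read out with a cell viability assay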
# Description: SANGER: Inhibition of human NCI-H810 cell growth in a cell viability assay.
# [30] = system: OCI-AML2; assay type: functional, cell-based; conditions: Homo sapiens;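 note: growth inhibition of OCI-AML2 cells, read out with a cell viability assay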
# Description: SANGER: Inhibition of human OCI-AML2 cell growth in a cell viability assay.
# [31] = system: OVCAR-3; assay type: functional, cell-based, Homo sapiens; conditions: Homo sapiens, OVCAR-3;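 note: growth inhibition of human OVCAR-3 cells, determined by a cell viability assay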
# Description: SANGER: Inhibition of human OVCAR-3 cell growth in a cell viability assay.
# [32] = system: RKO; assay type: functional, cell-based, Homo sapiens; conditions: Homo sapiens, RKO;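 note: growth inhibition of human RKO cells, read out with a cell viability assay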
# Description: SANGER: Inhibition of human RKO cell growth in a cell viability assay.
# [33] = system: RT-112; assay type: functional, cell-based, Homo sapiens; conditions: Homo sapiens, RT-112
# Description: SANGER: Inhibition of human RT-112 cell growth in a cell viability assay.
# [34] = system: SCC-25; assay type: functional, cell-based, Homo sapiens; conditions: Homo sapiens, SCC-25;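 note: growth inhibition of SCC-25 cells, measured with a cell viability assay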
# Description: SANGER: Inhibition of human SCC-25 cell growth in a cell viability assay.
# [35] = system: SCH; assay type: functional, cell-based, Homo sapiens; conditions: Homo sapiens, SCH;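 note: growth inhibition of human SCH cells, read out in a cell viability assay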
# Description: SANGER: Inhibition of human SCH cell growth in a cell viability assay.
# [36] = system: SF-126; assay type: functional, cell-based, Homo sapiens; conditions: Homo sapiens, SF-126;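 note: growth inhibition of human SF126 cells, read out with a cell viability assay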
# Description: SANGER: Inhibition of human SF126 cell growth in a cell viability assay.
# [37] = system: SJSA-1; assay type: functional, cell-based, Homo sapiens; conditions: Homo sapiens, SJSA-1;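 note: growth inhibition of human SJSA-1 cells, read out through a cell viability measurement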
# Description: SANGER: Inhibition of human SJSA-1 cell growth in a cell viability assay.
# [38] = system: SK-LU-1; assay type: functional, cell-based, Homo sapiens; conditions: Homo sapiens, SK-LU-1;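 note: cell viability assay measuring growth inhibition of human SK-LU-1 cells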
# Description: SANGER: Inhibition of human SK-LU-1 cell growth in a cell viability assay.
# [39] = system: SK-MEL-24; assay type: functional, cell-based; conditions: Homo sapiens;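 note: growth inhibition read out by a cell viability assay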
# Description: SANGER: Inhibition of human SK-MEL-24 cell growth in a cell viability assay.
# [40] = system: SNU-387; assay type: functional, cell-based, Homo sapiens; conditions: Homo sapiens, SNU-387
# Description: SANGER: Inhibition of human SNU-387 cell growth in a cell viability assay.
# [41] = system: SW-620; assay type: functional, cell-based, Homo sapiens; conditions: Homo sapiens, SW-620;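 note: growth inhibition of human SW-620 cells, measured by a cell viability assay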
# Description: SANGER: Inhibition of human SW620 cell growth in a cell viability assay.
# [42] = system: 786-0; assay type: functional, cell-based, Homo sapiens; conditions: Homo sapiens
# Description: SANGER: Inhibition of human 786-0 cell growth in a cell viability assay.
# [43] = system: 8505C; assay type: functional, cell-based, Homo sapiens; conditions: Homo sapiens, 8505C
# Description: SANGER: Inhibition of human 8505C cell growth in a cell viability assay.
# [44] = system: A2780; assay type: functional, cell-based, Homo sapiens; conditions: Homo sapiens, A2780;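 note: growth inhibition of A2780 cells, read out with a cell viability assay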
# Description: SANGER: Inhibition of human A2780 cell growth in a cell viability assay.
# [45] = system: AN3-CA; assay type: functional, cell-based; conditions: Homo sapiens;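 note: growth inhibition of human AN3-CA cells measured by a cell viability assay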
# Description: SANGER: Inhibition of human AN3-CA cell growth in a cell viability assay.
# [46] = system: BB49-HNC; assay type: functional, cell-based, Homo sapiens; conditions: Homo sapiens, BB49-HNC;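 note: cell viability assay read-out, reported as inhibition of BB49-HNC cell growth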
# Description: SANGER: Inhibition of human BB49-HNC cell growth in a cell viability assay.
# [47] = system: TE-10; assay type: functional, cell-based, Homo sapiens; conditions: Homo sapiens, TE-10;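 note: growth inhibition of TE-10 cells, measured by a cell viability assay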
# Description: SANGER: Inhibition of human TE-10 cell growth in a cell viability assay.
# [48] = system: TGBC24TKB; assay type: functional, cell-based, Homo sapiens; conditions: Homo sapiens, TGBC24TKB;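 note: growth inhibition of human TGBC24TKB cells, read out with a cell viability assay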
# Description: SANGER: Inhibition of human TGBC24TKB cell growth in a cell viability assay.
# [49] = system: TGW; assay type: functional, cell-based; conditions: Homo sapiens;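 note: growth inhibition of human TGW cells, read out with a cell viability assay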
# Description: SANGER: Inhibition of human TGW cell growth in a cell viability assay.
# [50] = system: TYK-nu; assay type: functional, cell-based, Homo sapiens; conditions: Homo sapiens, TYK-nu;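 note: growth inhibition of human TYK-nu cells, read out by a cell viability assay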
# Description: SANGER: Inhibition of human TYK-nu cell growth in a cell viability assay.
# [51] = system: YAPC; assay type: functional, cell-based, Homo sapiens; conditions: Homo sapiens, YAPC;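 note: growth inhibition of YAPC cells, measured with a cell viability assay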
# Description: SANGER: Inhibition of human YAPC cell growth in a cell viability assay.
# [52] = system: CHL-1; assay type: functional, cell-based, Homo sapiens; conditions: Homo sapiens, CHL-1;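 note: cell growth inhibition, read out with a cell viability assay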
# Description: SANGER: Inhibition of human CHL-1 cell growth in a cell viability assay.
# [53] = system: SNU-5; assay type: functional, cell-based; conditions: Homo sapiens;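 note: cell viability readout used to measure growth inhibition in human NCI-SNU-5 cells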
# Description: SANGER: Inhibition of human NCI-SNU-5 cell growth in a cell viability assay.
structure (smiles),measurement,setting,value
O=c1cc(-c2cccc3c2Sc2ccccc2S3)oc(N2CCOCC2)c1 [KU-55933],IC50,[1],> 10 µM
same,IC50,[2],> 10 µM
same,IC50,[3],> 10 µM
same,IC50,[4],> 10 µM
same,IC50,[5],> 10 µM
same,IC50,[6],> 10 µM
same,IC50,[7],> 10 µM
same,IC50,[8],> 10 µM
same,IC50,[9],> 10 µM
same,IC50,[10],> 10 µM
same,IC50,[11],> 10 µM
same,IC50,[12],> 10 µM
same,IC50,[13],> 10 µM
same,IC50,[14],> 10 µM
same,IC50,[15],> 10 µM
same,IC50,[16],> 10 µM
same,IC50,[17],> 10 µM
same,IC50,[18],> 10 µM
same,IC50,[19],> 10 µM
same,IC50,[20],6.93 µM
same,IC50,[21],> 10 µM
same,IC50,[22],> 10 µM
same,IC50,[23],> 10 µM
same,IC50,[24],> 10 µM
same,IC50,[25],> 10 µM
same,IC50,[26],> 10 µM
same,IC50,[27],> 10 µM
same,IC50,[28],> 10 µM
same,IC50,[29],> 10 µM
same,IC50,[30],> 10 µM
same,IC50,[31],> 10 µM
same,IC50,[32],> 10 µM
same,IC50,[33],> 10 µM
same,IC50,[34],> 10 µM
same,IC50,[35],> 10 µM
same,IC50,[36],> 10 µM
same,IC50,[37],> 10 µM
same,IC50,[38],> 10 µM
same,IC50,[39],> 10 µM
same,IC50,[40],> 10 µM
same,IC50,[41],> 10 µM
same,IC50,[42],> 10 µM
same,IC50,[43],> 10 µM
same,IC50,[44],> 10 µM
same,IC50,[45],> 10 µM
same,IC50,[46],> 10 µM
same,IC50,[47],> 10 µM
same,IC50,[48],> 10 µM
same,IC50,[49],> 10 µM
same,IC50,[50],> 10 µM
same,IC50,[51],> 10 µM
same,IC50,[52],> 10 µM
COc1ccc(C2=N[C@@H](c3ccc(Cl)cc3)[C@@H](c3ccc(Cl)cc3)N2C(=O)N2CCNC(=O)C2)c(OC(C)C)c1 [NUTLIN-3],IC50,[1],> 8 µM
same,IC50,[2],> 8 µM
same,IC50,[3],> 8 µM
same,IC50,[4],> 8 µM
same,IC50,[5],> 8 µM
same,IC50,[6],> 8 µM
same,IC50,[7],> 8 µM
same,IC50,[8],> 8 µM
same,IC50,[10],> 8 µM
same,IC50,[11],2.59 µM
same,IC50,[12],6.76 µM
same,IC50,[13],> 8 µM
same,IC50,[14],> 8 µM
same,IC50,[15],> 8 µM
same,IC50,[16],> 8 µM
same,IC50,[17],> 8 µM
same,IC50,[18],> 8 µM
same,IC50,[19],3.86 µM
same,IC50,[20],6.02 µM
same,IC50,[21],> 8 µM
same,IC50,[22],3.44 µM
same,IC50,[23],> 8 µM
same,IC50,[24],3.21 µM
same,IC50,[25],> 8 µM
same,IC50,[26],> 8 µM
same,IC50,[27],7.39 µM
same,IC50,[28],> 8 µM
same,IC50,[29],> 8 µM
same,IC50,[53],> 8 µM
same,IC50,[30],> 8 µM
same,IC50,[31],> 8 µM
same,IC50,[32],3.54 µM
same,IC50,[33],> 8 µM
same,IC50,[34],> 8 µM
same,IC50,[35],> 8 µM
same,IC50,[36],> 8 µM
same,IC50,[37],2.83 µM
same,IC50,[38],> 8 µM
same,IC50,[39],> 8 µM
same,IC50,[40],> 8 µM
same,IC50,[41],> 8 µM
same,IC50,[42],> 8 µM
same,IC50,[43],> 8 µM
same,IC50,[44],> 8 µM
same,IC50,[45],> 8 µM
same,IC50,[46],> 8 µM
same,IC50,[47],> 8 µM
same,IC50,[48],> 8 µM
same,IC50,[49],> 8 µM
same,IC50,[50],> 8 µM
same,IC50,[51],> 8 µM
same,IC50,[52],> 8 µM
